target: T1, ERR1 (also known as ERR-α or ERR-1) (Homo sapiens, UniProt P11474); experiment: TR-FRET assay: disruption of co-activator peptide (GST-hSRC2) binding to 6His-tagged ERR1 LBD; format: biochemical; conditions: 6 nM ERR1LBD, 6 nM GST-SRC-2 peptide, 25° C., 4-18 hours; average of 3 independent experiments
T1 sequence (P11474 193-421 limits assumed): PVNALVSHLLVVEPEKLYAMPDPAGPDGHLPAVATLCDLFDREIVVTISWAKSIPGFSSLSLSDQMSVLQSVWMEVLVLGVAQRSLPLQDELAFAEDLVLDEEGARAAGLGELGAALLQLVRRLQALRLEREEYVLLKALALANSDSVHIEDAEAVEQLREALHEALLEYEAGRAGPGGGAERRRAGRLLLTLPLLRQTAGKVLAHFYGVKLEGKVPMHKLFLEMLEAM
Experimental: Time-Resolved Fluorescence Resonance Energy Transfer (TR-FRET) experiments were performed to examine the functional response of ERR1 (also known as ERR-α or ERR-1) ligands. The TR-FRET assay described herein relied on the conformation of ERR1 for binding to a co-activator peptide: when a test compound binds to ERR1 and alters its conformation, it can disrupt the binding of the co-activator peptide. The components of this homogeneous secondary assay included: the ^6His-tagged-ERR1LBD, a GST-labeled-hSRC2 co-activator polypeptide and a fluorescent donor/acceptor pair from CIS bio international htrf/bioassays (Bedford, Mass.) using both an α-GST Europium Cryptate (Eu) label and an α^6His-XL665 (allophycocyanin) fluorophore.
For TR-FRET measurements, the reaction was buffered in 25 mM Tris pH 8, 2.5 mM Hepes, 20 mM KCl, 1 mM DTT, and 0.05 mg/mL BSA (-lipids). The final concentrations of reagents were 6 nM of ERR1LBD, 6 nM GST-SRC-2 peptide, 30 nM Eu cryptate, and 7.5 nM XL665. Reactions were allowed to reach equilibrium at 25° C. for 4-18 hours before collecting data on the Analyst from LJL Biosystems (Molecular Devices Sunnyvale, Calif.). As a time-resolved method, the samples were excited at […] and emission was collected for 1 ms at both 615 and 665 nm with delays of 400 and 75 μs, respectively. Dose response curves were fitted using a hyperbolic equation and the data reported is the average of 3 independent experiments.
Compounds listed in Tables II below were tested in the above assay, and they are all active modulators of ERR1.

SMILES	EC50 [nM]
CN(C)CCCNC1=NC(=O)/C(=C/c2ccc3c(cnn3Cc3ccc(F)cc3C(F)(F)F)c2)S1 [Compound 1, 2-(3-Dimethylamino-propylamino)-5-[1-(4-fluoro-2-trifluoromethyl-benzyl)-1H-indazol-5-ylmethylene]-thiazol-4-one]	77
CN(C)CCCNC1=NC(=O)/C(=C/c2ccc3c(cnn3Cc3ccc(C(F)(F)F)cc3C(F)(F)F)c2)S1 [Compound 2, 5-[1-(2,4-Bis-trifluoromethyl-benzyl)-1H-indazol-5-ylmethylene]-2-(3-dimethylamino-propylamino)-thiazol-4-one]	12
CN(C)CCCNC1=NC(=O)/C(=C/c2ccc3c(cnn3Cc3ccc(Cl)cc3C(F)(F)F)c2)S1 [Compound 3, 5-[1-(4-Chloro-2-trifluoromethyl-benzyl)-1H-indazol-5-ylmethylene]-2-(3-dimethylamino-propylamino)-thiazol-4-one]	6.4
O=C(O)CNC1=NC(=O)/C(=C/c2ccc3c(cnn3Cc3ccc(Cl)cc3C(F)(F)F)c2)S1 [Compound 4, {5-[1-(4-Chloro-2-trifluoromethyl-benzyl)-1H-indazol-5-ylmethylene]-4-oxo-4,5-dihydro-thiazol-2-ylamino}-acetic acid]	23.1
O=C1N=C(NCCOCCO)S/C1=C\c1ccc2c(cnn2Cc2ccc(Cl)cc2Cl)c1 [Compound 8, 5-[1-(2,4-Dichloro-benzyl)-1H-indazol-5-ylmethylene]-2-[2-(2-hydroxy-ethoxy)-ethylamino]-thiazol-4-one]	73
COc1ccc(Cn2ncc3cc(/C=C4\SC(NC[C@H](O)CO)=NC4=O)ccc32)c(C(F)(F)F)c1 [Compound 9, 2-(2S,3-Dihydroxy-propylamino)-5-[1-(4-methoxy-2-trifluoromethyl-benzyl)-1H-indazol-5-ylmethylene]-thiazol-4-one]	8.9
O=C1N=C(NCCN2CCOCC2)S/C1=C\c1ccc2c(cnn2Cc2ccc(C(F)(F)F)cc2C(F)(F)F)c1 [Compound 12, 5-[1-(2,4-Bis-trifluoromethyl-benzyl)-1H-indazol-5-ylmethylene]-2-(2-morpholin-4-yl-ethylamino)-thiazol-4-one]	15
O=C1N=C(NC2(C(=O)O)CC2)S/C1=C\c1ccc2c(cnn2Cc2ccc(C(F)(F)F)cc2C(F)(F)F)c1 [Compound 14, 1-{5-[1-(2,4-Bis-trifluoromethyl-benzyl)-1H-indazol-5-ylmethylene]-4-oxo-4,5-dihydro-thiazol-2-ylamino}-cyclopropanecarboxylic acid]	6.5
O=C1N=C(NCCn2cncn2)S/C1=C\c1ccc2c(cnn2Cc2ccc(C(F)(F)F)cc2C(F)(F)F)c1 [Compound 17, 5-[1-(2,4-Bis-trifluoromethyl-benzyl)-1H-indazol-5-ylmethylene]-2-(2-[1,2,4]triazol-1-yl-ethylamino)-thiazol-4-one]	7.6
O=C1CN(CCNC2=NC(=O)/C(=C/c3ccc4c(cnn4Cc4ccc(Cl)cc4C(F)(F)F)c3)S2)CCN1 [Compound 19, 4-(2-{5-[1-(4-Chloro-2-trifluoromethyl-benzyl)-1H-indazol-5-ylmethylene]-4-oxo-4,5-dihydro-thiazol-2-ylamino}-ethyl)-piperazin-2-one]	11
O=C1N=C(Nc2cccnc2)S/C1=C\c1ccc2c(cnn2Cc2ccc(Cl)cc2C(F)(F)F)c1 [Compound 20, 5-[1-(4-Chloro-2-trifluoromethyl-benzyl)-1H-indazol-5-ylmethylene]-2-(pyridin-3-ylamino)-thiazol-4-one]	19.4
O=C1N=C(NC2CCN(CCO)CC2)S/C1=C\c1ccc2c(cnn2Cc2ccc(Cl)cc2C(F)(F)F)c1 [Compound 22, 5-[1-(4-Chloro-2-trifluoromethyl-benzyl)-1H-indazol-5-ylmethylene]-2-[1-(2-hydroxy-ethyl)-piperidin-4-ylamino]-thiazol-4-one]	14
O=C1N=C(NCc2cccnc2)S/C1=C\c1ccc2c(cnn2Cc2ccc(Cl)cc2C(F)(F)F)c1 [Compound 23, 5-[1-(4-Chloro-2-trifluoromethyl-benzyl)-1H-indazol-5-ylmethylene]-2-[(pyridin-3-ylmethyl)-amino]-thiazol-4-one]	17
O=C1N=C(NCCn2ccnc2)S/C1=C\c1ccc2c(cnn2Cc2ccc(Cl)cc2C(F)(F)F)c1 [Compound 24, 5-[1-(4-Chloro-2-trifluoromethyl-benzyl)-1H-indazol-5-ylmethylene]-2-(2-imidazol-1-yl-ethylamino)-thiazol-4-one]	12
CN1CCC(NC2=NC(=O)/C(=C/c3ccc4c(cnn4Cc4ccc(Cl)cc4C(F)(F)F)c3)S2)CC1 [Compound 25, 5-[1-(4-Chloro-2-trifluoromethyl-benzyl)-1H-indazol-5-ylmethylene]-2-(1-methyl-piperidin-4-ylamino)-thiazol-4-one]	42
O=C1N=C(N[C@H]2CN3CCC2CC3)S/C1=C\c1ccc2c(cnn2Cc2ccc(C(F)(F)F)cc2C(F)(F)F)c1 [Compound 26, 2-(1-Aza-bicyclo[2.2.2]oct-3(R)-ylamino)-5-[1-(2,4-bis-trifluoromethyl-benzyl)-1H-indazol-5-ylmethylene]-thiazol-4-one]	36
O=C1N=C(N[C@@H]2CN3CCC2CC3)S/C1=C\c1ccc2c(cnn2Cc2ccc(Cl)cc2C(F)(F)F)c1 [Compound 27, 2-(1-Aza-bicyclo[2.2.2]oct-3(S)-ylamino)-5-[1-(4-chloro-2-trifluoromethyl-benzyl)-1H-indazol-5-ylmethylene]-thiazol-4-one]	11

These reach a lower EC50. Values come first.

EC50 [nM]	SMILES
5.3	COc1ccc(Cn2ncc3cc(/C=C4\SC(NC5(C(=O)O)CC5)=NC4=O)ccc32)c(C(F)(F)F)c1 [Compound 13, 1-{5-[1-(4-Methoxy-2-trifluoromethyl-benzyl)-1H-indazol-5-ylmethylene]-4-oxo-4,5-dihydro-thiazol-2-ylamino}-cyclopropanecarboxylic acid]
4.9	COc1ccc(Cn2ncc3cc(/C=C4\SC(NC[C@@H](O)CO)=NC4=O)ccc32)c(C(F)(F)F)c1 [Compound 10, 2-(2R,3-Dihydroxy-propylamino)-5-[1-(4-methoxy-2-trifluoromethyl-benzyl)-1H-indazol-5-ylmethylene]-thiazol-4-one]
4.6	O=C1N=C(N[C@H]2CCNC2)S/C1=C\c1ccc2c(cnn2Cc2ccc(Cl)cc2C(F)(F)F)c1 [Compound 21, 5-[1-(4-Chloro-2-trifluoromethyl-benzyl)-1H-indazol-5-ylmethylene]-2-(pyrrolidin-3S-ylamino)-thiazol-4-one]
4.5	COc1ccc(Cn2ncc3cc(/C=C4\SC(NCCN5CCCC5)=NC4=O)ccc32)c(C(F)(F)F)c1 [Compound 6, 5-[1-(4-Methoxy-2-trifluoromethyl-benzyl)-1H-indazol-5-ylmethylene]-2-(2-pyrrolidin-1-yl-ethylamino)-thiazol-4-one]
4.4	COc1ccc(Cn2ncc3cc(/C=C4\SC(NCCCN5CCCC5=O)=NC4=O)ccc32)c(C(F)(F)F)c1 [Compound 7, 5-[1-(4-Methoxy-2-trifluoromethyl-benzyl)-1H-indazol-5-ylmethylene]-2-[3-(2-oxo-pyrrolidin-1-yl)-propylamino]-thiazol-4-one]
3.9	O=C1N=C(NCc2nn[nH]n2)S/C1=C\c1ccc2c(cnn2Cc2ccc(C(F)(F)F)cc2C(F)(F)F)c1 [Compound 15, 5-[1-(2,4-Bis-trifluoromethyl-benzyl)-1H-indazol-5-ylmethylene]-2-[(2H-tetrazol-5-ylmethyl)-amino]-thiazol-4-one]
3.2	COc1ccc(Cn2ncc3cc(/C=C4\SC(NCCN5CCOCC5)=NC4=O)ccc32)c(C(F)(F)F)c1 [Compound 5, 5-[1-(4-Methoxy-2-trifluoromethyl-benzyl)-1H-indazol-5-ylmethylene]-2-(2-morpholin-4-yl-ethylamino)-thiazol-4-one]
3	COc1ccc(Cn2ncc3cc(/C=C4\SC(NCC(F)F)=NC4=O)ccc32)c(C(F)(F)F)c1 [Compound 11, 2-(2,2-Difluoro-ethylamino)-5-[1-(4-methoxy-2-trifluoromethyl-benzyl)-1H-indazol-5-ylmethylene]-thiazol-4-one]
2.5	O=C1CN(CCNC2=NC(=O)/C(=C/c3ccc4c(cnn4Cc4ccc(C(F)(F)F)cc4C(F)(F)F)c3)S2)CCN1 [Compound 16, 4-(2-{5-[1-(2,4-Bis-trifluoromethyl-benzyl)-1H-indazol-5-ylmethylene]-4-oxo-4,5-dihydro-thiazol-2-ylamino}-ethyl)-piperazin-2-one]
1.8	COc1ccc(Cn2ncc3cc(/C=C4\SC(NCCn5cncn5)=NC4=O)ccc32)c(C(F)(F)F)c1 [Compound 18, 5-[1-(4-Methoxy-2-trifluoromethyl-benzyl)-1H-indazol-5-ylmethylene]-2-(2-[1,2,4]triazol-1-yl-ethylamino)-thiazol-4-one]
